Test results published in ChEMBL document CHEMBL1811859, “Second-generation sulfonamide inhibitors of D-glutamic acid-adding enzyme: activity optimisation with conformationally rigid analogues of D-glutamic acid” (Eur J Med Chem, 2011).
pIC50, pKi: −log10 of the molar value. In brackets after ≈: the same amount, converted by molar mass.

Columns and labels:
[1] = system: Streptococcus pneumoniae; test: Antimicrobial activity against Streptococcus pneumoniae D39 by broth dilution method; assay type: functional
[2] = system: Streptococcus pneumoniae; test: Antimicrobial activity against Streptococcus pneumoniae ATCC 33400 by broth dilution method; assay type: functional
[3] = system: Streptococcus pneumoniae; test: Antimicrobial activity against Streptococcus pneumoniae ATCC 49619 by broth dilution method; assay type: functional
[4] = system: Enterococcus hirae; test: Antimicrobial activity against Enterococcus hirae ATCC 9790 by broth dilution method; assay type: functional
[5] = system: Enterococcus faecium; test: Antimicrobial activity against Enterococcus faecium ATCC 19434 by broth dilution method; assay type: functional
[6] = system: Enterococcus faecalis; test: Antimicrobial activity against Enterococcus faecalis ATCC 29212 by broth dilution method; assay type: functional
[7] = system: Enterococcus faecalis; test: Antimicrobial activity against Enterococcus faecalis ATCC 19433 by broth dilution method; assay type: functional
[8] = system: Bacillus subtilis; test: Antimicrobial activity against Bacillus subtilis ATCC 6633 by broth dilution method; assay type: functional
[9] = system: Listeria monocytogenes; test: Antimicrobial activity against Listeria monocytogenes ATCC 14780 by broth dilution method; assay type: functional
[10] = system: Listeria innocua; test: Antimicrobial activity against Listeria innocua ATCC 33090 by broth dilution method; assay type: functional
[11] = system: Micrococcus luteus; test: Antimicrobial activity against Micrococcus luteus ATCC 9314 by broth dilution method; assay type: functional
[12] = system: Klebsiella pneumoniae; test: Antimicrobial activity against Klebsiella pneumoniae ATCC 13883 by broth dilution method; assay type: functional
[13] = system: Pseudomonas aeruginosa; test: Antimicrobial activity against Pseudomonas aeruginosa ATCC 27853 by broth dilution method; assay type: functional
[14] = system: Citrobacter freundii; test: Antimicrobial activity against Citrobacter freundii ATCC 8090 by broth dilution method; assay type: functional
[15] = system: Proteus mirabilis; test: Antimicrobial activity against Proteus mirabilis ATCC 29936 by broth dilution method; assay type: functional
[16] = system: Escherichia coli; test: Antimicrobial activity against Escherichia coli ATCC 8739 by broth dilution method; assay type: functional
[17] = system: Escherichia coli; test: Inhibition of Escherichia coli MurD ligase assessed as residual activity at 1 mM after 30 mins
[18] = system: Staphylococcus epidermidis; test: Antimicrobial activity against Staphylococcus epidermidis ATCC 12228 by broth dilution method; assay type: functional
[19] = system: Staphylococcus aureus; test: Antimicrobial activity against Staphylococcus aureus ATCC 25923 by broth dilution method; assay type: functional
[20] = system: Staphylococcus aureus; test: Antimicrobial activity against methicillin-resistant Staphylococcus aureus PL1 by broth dilution method; assay type: functional
[21] = system: Staphylococcus aureus; test: Antimicrobial activity against methicillin-resistant Staphylococcus aureus ATCC 43300 by broth dilution method; assay type: functional
[22] = system: Escherichia coli; test: Inhibition of Escherichia coli MurD ligase assessed as residual activity at 500 uM after 30 mins
[23] = Inhibition of Escherichia coli MurD ligase assessed as addition of D-[3H]glu to UDP-N-acetyl-muramoyl-L-alanine after 30 mins

| SMILES | MIC [1] [µg/mL] | MIC [2] [µg/mL] | MIC [3] [µg/mL] | MIC [4] [µg/mL] | MIC [5] [µg/mL] | MIC [6] [µg/mL] | MIC [7] [µg/mL] | MIC [8] [µg/mL] | MIC [9] [µg/mL] | MIC [10] [µg/mL] | MIC [11] [µg/mL] | MIC [12] [µg/mL] | MIC [13] [µg/mL] | MIC [14] [µg/mL] | MIC [15] [µg/mL] | MIC [16] [µg/mL] | MIC [18] [µg/mL] | MIC [19] [µg/mL] | MIC [20] [µg/mL] | MIC [21] [µg/mL] | also measured |
| --- | --- | --- | --- | --- | --- | --- | --- | --- | --- | --- | --- | --- | --- | --- | --- | --- | --- | --- | --- | --- | --- |
| N#Cc1ccc(COc2ccc3cc(S(=O)(=O)N[C@H]4CCCC[C@H]4C(=O)O)ccc3c2)c(F)c1 | > 512 | > 512 | > 512 | > 512 | 256 (≈ 531 µM) | > 512 | > 512 | > 512 | > 512 | > 512 | > 512 | > 512 | > 512 | > 512 | > 512 | > 512 | 256 (≈ 531 µM) | 256 (≈ 531 µM) | 256 (≈ 531 µM) | 256 (≈ 531 µM) | Activity [17]: 45% |
| CCCCOc1ccc2cc(S(=O)(=O)Nc3cc(C(=O)O)cc(C(=O)O)c3)ccc2c1 | > 512 | > 512 | > 512 | > 512 | > 512 | > 512 | > 512 | > 512 | > 512 | > 512 | > 512 | > 512 | > 512 | > 512 | > 512 | > 512 | > 512 | > 512 | > 512 | > 512 | Activity [22]: 70% |
| N#Cc1ccc(COc2ccc3cc(S(=O)(=O)N[C@H](CCC(=O)O)C(=O)O)ccc3c2)c(F)c1 | – | – | – | – | – | – | – | – | – | – | – | – | – | – | – | – | – | – | – | – | pKi [23]: 4.24 |
| N#Cc1ccc(COc2ccc3cc(S(=O)(=O)Nc4ccc(CC(=O)O)cc4)ccc3c2)c(F)c1 | 64 (≈ 130 µM) | 32 (≈ 65.2 µM) | 64 (≈ 130 µM) | > 512 | > 512 | > 512 | > 512 | > 512 | > 512 | > 512 | > 512 | > 512 | > 512 | > 512 | > 512 | > 512 | > 512 | > 512 | > 512 | > 512 | Activity [22]: 64% |
| CCCCOc1ccc2cc(S(=O)(=O)Nc3ccc(C(=O)O)cc3C(=O)O)ccc2c1 | > 512 | > 512 | > 512 | > 512 | > 512 | > 512 | > 512 | > 512 | > 512 | > 512 | > 512 | > 512 | > 512 | > 512 | > 512 | > 512 | > 512 | > 512 | > 512 | > 512 | Activity [17]: 8%; pIC50 [23]: 3.90; pKi [23]: 4.06 |
| CCCCOc1ccc2cc(S(=O)(=O)N3CCC(C(=O)O)CC3)ccc2c1 | – | – | – | – | – | – | – | – | – | – | – | – | – | – | – | – | – | – | – | – | Activity [22]: 97% |
| N#Cc1ccc(COc2ccc3cc(S(=O)(=O)Nc4cc(C(=O)O)cc(C(=O)O)c4)ccc3c2)c(F)c1 | > 512 | > 512 | > 512 | > 512 | > 512 | > 512 | > 512 | > 512 | > 512 | > 512 | > 512 | > 512 | > 512 | > 512 | > 512 | > 512 | > 512 | > 512 | > 512 | > 512 | Activity [17]: 2%; pIC50 [23]: 4.30; pKi [23]: 4.47 |
| N#Cc1ccc(COc2ccc3cc(S(=O)(=O)Nc4ccc(C(=O)O)cc4C(=O)O)ccc3c2)c(F)c1 | > 512 | > 512 | > 512 | > 512 | > 512 | > 512 | > 512 | > 512 | > 512 | > 512 | > 512 | > 512 | > 512 | > 512 | > 512 | > 512 | > 512 | > 512 | > 512 | > 512 | Activity [17]: 0.79%; pIC50 [23]: 5.08; pKi [23]: 5.24 |
